The record followed here is PubChem BioAssay (NCI).

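The compound was tested at five concentrations on cells cultured in 96-well plates, with a 48-hour exposure period. The concentration for full growth arrest is given as TGI.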

Among the test systems are KM12 colon; MOLT-4 leukemia; NCI-H226 lung; CCRF-CEM leukemia; OVCAR-4 ovarian; HCC-2998 colon; NCI-H460 lung; HCT-15 colon.
Holding throughout (test): NCI-60 cell line screen, 48 h

Take `CCn1c2c(c3ccccc31)[C@@H](c1ccc(Cl)cc1)CC1C(=O)N(c3ccccc3)C(=O)C21` (stereo partly drawn): the TGI in the assay with KM12 colon, in the assay with MOLT-4 leukemia, with NCI-H226 lung, in the assay with CCRF-CEM leukemia, in the assay on OVCAR-4 ovarian and with HCC-2998 colon was over 100 µM in each case. The TGI in the assay on NCI-H460 lung and in the assay on HCT-15 colon was over 100 µM in each case.
Take `Cc1cccc(C)c1N1C(=O)C(=O)C(c2nc3ccccc3s2)/C(=N/NC(=O)c2ccccc2O)C1=O` (stereo not drawn): the TGI in the assay with KM12 colon is over 100 µM; in the assay with MOLT-4 leukemia, over 100 µM; with NCI-H226 lung, 56.5 µM; in the assay with CCRF-CEM leukemia it was over 65.3 µM; in the assay with OVCAR-4 ovarian, over 100 µM; in the assay with HCC-2998 colon, over 73.1 µM. In addition, the results for the TGI in the assay with NCI-H460 lung and with HCT-15 colon were over 92 µM and over 100 µM, respectively.
With `CCOC(=O)C12C(C(=O)OC)=C(C)N(NC(=O)Nc3ccccc3)C1(N)N(NC(=O)Nc1ccccc1)C(C)=C2C(=O)OC` (stereo not drawn), the TGI in the assay with KM12 colon is 47.8 µM; in the assay with MOLT-4 leukemia it was 46.7 µM; in the assay with NCI-H226 lung, over 100 µM; with CCRF-CEM leukemia, 59 µM; with OVCAR-4 ovarian, over 100 µM; in the assay on HCC-2998 colon, 86.8 µM. The TGI was over 94.2 µM in the assay on NCI-H460 lung and over 100 µM in the assay with HCT-15 colon.
As for `Cc1cc(C)c(C(=O)O)c(SSc2cc(C)cc(C)c2C(=O)O)c1`, the TGI with KM12 colon, in the assay on MOLT-4 leukemia, in the assay on NCI-H226 lung, in the assay with CCRF-CEM leukemia, with OVCAR-4 ovarian and in the assay on NCI-H460 lung was over 100 µM throughout.
Turning to `COC(=O)C(CC(=O)Nc1ccc(Cl)c(Cl)c1)C(=O)C(=O)Nc1ccc(Cl)c(Cl)c1` (stereo not drawn), the TGI with KM12 colon, with MOLT-4 leukemia, in the assay on NCI-H226 lung, in the assay with CCRF-CEM leukemia, in the assay on OVCAR-4 ovarian and with HCC-2998 colon was over 100 µM each time. The TGI in the assay on NCI-H460 lung and in the assay with HCT-15 colon was over 100 µM in each case.
In the case of `C1CN(P2(N3CC3)=NP(N3CC3)(N3CC3)=NP(N3CC3)(N3CC3)=N2)CCO1` (stereo not drawn), the TGI in the assay with KM12 colon, with MOLT-4 leukemia, in the assay with NCI-H226 lung, with CCRF-CEM leukemia, with OVCAR-4 ovarian and in the assay on HCC-2998 colon was over 100 µM throughout. The TGI with NCI-H460 lung and in the assay with HCT-15 colon was over 100 µM in each case.
For `CCOc1ccc(NCC2CC/C(=C\c3ccccc3OC)C2=O)cc1` (stereo not drawn), the TGI with KM12 colon came out at 9.1 µM; with MOLT-4 leukemia, 20.9 µM; in the assay on NCI-H226 lung, 34.1 µM; in the assay on CCRF-CEM leukemia, 7.22 µM; with OVCAR-4 ovarian, 12.8 µM; with HCC-2998 colon it was 25.8 µM. The molecule further gave a TGI with HCT-15 colon of 7.82 µM.
Take `COC(=O)/C(C#N)=C(\N)C(Cl)(Cl)Cl`: the TGI with KM12 colon was found to be 15.8 µM; in the assay with MOLT-4 leukemia it was 3.2 µM; in the assay on CCRF-CEM leukemia, 2.67 µM; in the assay with OVCAR-4 ovarian it was 8.56 µM; in the assay on HCC-2998 colon it was 9.41 µM; in the assay on NCI-H460 lung, 16.1 µM. Further, in the assay on HCT-15 colon, the TGI was 8.43 µM.
With `COc1cc2c(cc1OC)C1Cc3ccc(OC)c(OC)c3C[N+]1([O-])CC2` (stereo not drawn), the TGI with KM12 colon, with MOLT-4 leukemia, in the assay with CCRF-CEM leukemia, with OVCAR-4 ovarian, in the assay on HCC-2998 colon and in the assay with NCI-H460 lung was over 100 µM throughout.
In the case of `CCOC(=O)C1=C(C)N(NC(N)=O)C2(N)N(NC(N)=O)C(C)=C(C(=O)OCC)C12C(=O)OCC` (stereo not drawn), the TGI in the assay with KM12 colon, in the assay with MOLT-4 leukemia, in the assay with NCI-H226 lung, in the assay on OVCAR-4 ovarian, in the assay on HCC-2998 colon and in the assay with NCI-H460 lung was over 100 µM throughout. In the assay with HCT-15 colon, this molecule displayed a TGI of over 100 µM.
Regarding `COc1ccc(C(=O)CC2=Nc3nnc(CCCCCCCc4nnc5n4C(=O)C(CC(=O)c4ccc(OC)cc4)=N5)n3C2=O)cc1`, the TGI in the assay with KM12 colon, with MOLT-4 leukemia, with NCI-H226 lung, with CCRF-CEM leukemia, in the assay on HCC-2998 colon and in the assay with NCI-H460 lung was over 100 µM in each case. Further, the TGI in the assay on HCT-15 colon was over 100 µM.
As for `CC1CC(C)C2OC2(C)C[C@H](C)C(=O)NC(C)C(=O)N(C)[C@H](Cc2c(Br)[nH]c3ccccc23)C(=O)N[C@@H](c2ccc(O)cc2)CC(=O)O1` (stereo partly drawn), the TGI was over 100 µM in the assay on KM12 colon; 57.3 µM in the assay on MOLT-4 leukemia; 2.23 µM in the assay with NCI-H226 lung; over 65 µM in the assay with CCRF-CEM leukemia; 1.09 µM in the assay with OVCAR-4 ovarian; 0.505 µM in the assay on HCC-2998 colon. The TGI in the assay with NCI-H460 lung and in the assay on HCT-15 colon was over 100 µM each time.
For the molecule `CCCN(CCC)C(=O)c1nc(N)nc(-c2ccc(OC)cc2)c1-c1ccc(OC)cc1`, the TGI in the assay on KM12 colon, in the assay with MOLT-4 leukemia, in the assay with NCI-H226 lung, in the assay with CCRF-CEM leukemia, in the assay with OVCAR-4 ovarian and in the assay with NCI-H460 lung was over 100 µM each time. This molecule displayed a TGI with HCT-15 colon of over 100 µM.
For the molecule `Cc1nc(N)nc(N)c1CCCc1ccccc1`, the TGI in the assay on KM12 colon is over 100 µM; with MOLT-4 leukemia, over 100 µM; with NCI-H226 lung, over 100 µM; with CCRF-CEM leukemia it was over 100 µM; in the assay on OVCAR-4 ovarian, over 100 µM; in the assay with HCC-2998 colon, 39.2 µM. The TGI with NCI-H460 lung and in the assay with HCT-15 colon was over 100 µM in each case.
`C/C(CC(=O)Nc1ccccc1C)=N/NS(=O)(=O)c1ccc(C)cc1`: the TGI in the assay on KM12 colon, in the assay with MOLT-4 leukemia, in the assay on NCI-H226 lung, in the assay with CCRF-CEM leukemia, in the assay with HCC-2998 colon and in the assay on NCI-H460 lung was over 100 µM throughout.
Consider `COc1cc(C(C)c2cc3c(cc2OCCNC(=O)COc2cc4c(cc2C(C)c2cc(OC)c(OC)c(OC)c2)OCO4)OCO3)cc(OC)c1OC` (stereo not drawn), for which the TGI in the assay on KM12 colon was over 100 µM; in the assay with MOLT-4 leukemia, 71.8 µM; in the assay with NCI-H226 lung it was over 100 µM; in the assay with CCRF-CEM leukemia, over 100 µM; in the assay with OVCAR-4 ovarian, over 100 µM; with HCC-2998 colon it was over 100 µM. Besides, the TGI is 49 µM in the assay on NCI-H460 lung and over 100 µM in the assay with HCT-15 colon.
In the case of `CC(C(=O)c1ccccc1)C1(O)C(=O)Nc2ccc(Cl)cc21` (stereo not drawn), the TGI was over 100 µM in the assay on KM12 colon; over 100 µM in the assay on NCI-H226 lung; 77.8 µM in the assay on OVCAR-4 ovarian; over 100 µM in the assay on HCC-2998 colon; over 100 µM in the assay with NCI-H460 lung; over 100 µM in the assay on HCT-15 colon.
On to `O=S(=O)(N=NC=C1c2ccccc2N(O)c2ccccc21)c1ccc(Cl)cc1`, for which the TGI in the assay with KM12 colon, in the assay on MOLT-4 leukemia, in the assay with NCI-H226 lung, in the assay with CCRF-CEM leukemia, in the assay on OVCAR-4 ovarian and with HCC-2998 colon was over 100 µM in each case. Further, the TGI in the assay on NCI-H460 lung and in the assay on HCT-15 colon was over 100 µM throughout.
`Cc1nc(/C=C2\C(=O)C=Cc3ccccc32)c(O)o1`: the TGI with KM12 colon, with MOLT-4 leukemia, with CCRF-CEM leukemia, with OVCAR-4 ovarian, in the assay with HCC-2998 colon and in the assay on NCI-H460 lung was over 100 µM in each case. The same molecule registered a TGI in the assay with HCT-15 colon of over 100 µM.
With `C=CCN1/C(=C2\SC(=S)N(c3ccc(C)cc3)C2=O)Sc2c1ncn(C)c2=O`, the TGI in the assay on KM12 colon, with MOLT-4 leukemia, with NCI-H226 lung, with CCRF-CEM leukemia, with OVCAR-4 ovarian and in the assay with HCC-2998 colon was over 100 µM each time. Besides, the TGI in the assay on NCI-H460 lung and in the assay on HCT-15 colon was over 100 µM throughout.
Consider `C#CC1(O)CCC2[C@@H]3CCc4cc(Oc5nc(F)nc(-c6c7ccccc7c(SCC)n6CCC)n5)ccc4C3CC[C@@]21C` (stereo partly drawn), for which the TGI in the assay on KM12 colon was over 100 µM; in the assay on MOLT-4 leukemia, over 100 µM; with NCI-H226 lung, 50.1 µM; in the assay with CCRF-CEM leukemia, over 100 µM; in the assay with OVCAR-4 ovarian, over 100 µM; in the assay on HCC-2998 colon, over 100 µM. Moreover, the TGI with NCI-H460 lung and in the assay on HCT-15 colon was over 100 µM each time.
Take `O=C(Nc1ccccc1-c1nn(CN2CCNCC2)c(=S)n(CN2CCNCC2)c1=O)C(F)(F)F`: the TGI with KM12 colon is 40.7 µM; in the assay with MOLT-4 leukemia, over 100 µM; with NCI-H226 lung it was 40.7 µM; with CCRF-CEM leukemia, 45.2 µM; in the assay with OVCAR-4 ovarian, 35.2 µM; in the assay with HCC-2998 colon, 33.4 µM. The TGI turned out to be 53.3 µM in the assay with NCI-H460 lung and 31.6 µM in the assay with HCT-15 colon.
Take `CC(=O)NNc1nc(C)c(C(=O)/C=C/c2ccc(Cl)cc2)s1`: the TGI with KM12 colon, in the assay with MOLT-4 leukemia, in the assay on CCRF-CEM leukemia, with HCC-2998 colon and with NCI-H460 lung was over 100 µM in each case.
Turning to `COc1ccc2oc(-c3ccc(OC)c(OC)c3OC)cc(=O)c2c1`, the TGI was 81.1 µM in the assay on NCI-H226 lung, over 100 µM in the assay on CCRF-CEM leukemia, over 100 µM in the assay on OVCAR-4 ovarian and over 100 µM in the assay on HCC-2998 colon.
`COC1CCC(OC)C(C2(C3CC(OC)CCC3OC)OC(=O)c3ccccc32)C1` (stereo not drawn): the TGI is over 100 µM in the assay with KM12 colon; 89.3 µM in the assay with MOLT-4 leukemia; over 100 µM in the assay with NCI-H226 lung; over 100 µM with OVCAR-4 ovarian; over 100 µM in the assay with HCC-2998 colon; over 100 µM in the assay on NCI-H460 lung. The TGI in the assay with HCT-15 colon is over 100 µM.
